Literature values as cited in patent EP2535049A1 (Proyecto de Biomedicina Cima, S.L., priority 2011, dated 2012).

Settings: Kulkarni and Patil 2004; Forgue et al., 2006; cited from earlier work

SMILES: CCCc1nc(C)c2c(=O)[nH]c(-c3cc(S(=O)(=O)N4CCN(CC)CC4)ccc3OCC)nn12 [vardenafil]
- half-life in blood serum: 3.4 h
